Key:
Details in all cases: 0.1 µM; binder
VRK2 = VRK2 (Homo sapiens, UniProt Q86Y07)
MST2 = MST2 (Homo sapiens, UniProt Q13188)
EPHA1 = EPHA1 (Homo sapiens, UniProt P21709)
FRK = FRK (Homo sapiens, UniProt P42685)
EGFR = EGFR (Homo sapiens, UniProt P00533)
BRK = BRK (Homo sapiens, UniProt Q13882)
PFTK1 = PFTK1 (Homo sapiens, UniProt O94921)
LRRK2(G2019S) = LRRK2(G2019S) (Homo sapiens, UniProt Q5S007, G2019S)
EGFR(G719S) = EGFR(G719S) (Homo sapiens, UniProt P00533, G719S)
SGK = SGK (Homo sapiens, UniProt O00141)
GSK3A = GSK3A (Homo sapiens, UniProt P49840)
DSTYK = DSTYK (Homo sapiens, UniProt Q6XUX3)
PIK3CA(Q546K) = PIK3CA(Q546K) (Homo sapiens, UniProt P42336, Q546K)
TNIK = TNIK (Homo sapiens, UniProt Q9UKE5)
GRK1 = GRK1 (Homo sapiens, UniProt Q15835)
ERBB4 = ERBB4 (Homo sapiens, UniProt Q15303)
RET(V804L) = RET(V804L) (Homo sapiens, UniProt P07949, V804L)
BTK = BTK (Homo sapiens, UniProt Q06187)
HIPK3 = HIPK3 (Homo sapiens, UniProt Q9H422)
FGFR3 = FGFR3 (Homo sapiens, UniProt P22607)
LATS2 = LATS2 (Homo sapiens, UniProt Q9NRM7)
ACVRL1 = ACVRL1 (Homo sapiens, UniProt P37023)
CSNK2A1 = CSNK2A1 (Homo sapiens, UniProt P68400)
MRCKB = MRCKB (Homo sapiens, UniProt Q9Y5S2)
p38-gamma = p38-gamma (Homo sapiens, UniProt P53778)
WNK4 = WNK4 (Homo sapiens, UniProt Q96J92)
PIK3CA(I800L) = PIK3CA(I800L) (Homo sapiens, UniProt P42336, I800L)
JNK3 = JNK3 (Homo sapiens, UniProt P53779)
MLK1 = MLK1 (Homo sapiens, UniProt P80192)
FLT3(D835Y) = FLT3(D835Y) (Homo sapiens, UniProt P36888, D835Y)
PDGFRA = PDGFRA (Homo sapiens, UniProt P16234)

Chain of SGK (O00141 whole entry): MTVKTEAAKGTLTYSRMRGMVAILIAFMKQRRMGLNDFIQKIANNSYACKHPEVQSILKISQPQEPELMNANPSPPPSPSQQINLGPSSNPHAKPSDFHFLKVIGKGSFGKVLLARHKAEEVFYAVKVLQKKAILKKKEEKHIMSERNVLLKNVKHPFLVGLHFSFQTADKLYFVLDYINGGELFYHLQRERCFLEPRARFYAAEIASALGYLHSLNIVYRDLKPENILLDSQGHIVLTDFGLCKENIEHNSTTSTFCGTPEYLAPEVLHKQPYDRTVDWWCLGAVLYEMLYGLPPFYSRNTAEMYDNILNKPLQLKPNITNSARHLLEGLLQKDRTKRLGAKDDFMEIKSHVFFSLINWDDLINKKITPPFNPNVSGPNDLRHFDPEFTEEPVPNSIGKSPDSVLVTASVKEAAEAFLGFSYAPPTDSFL
Chain of PFTK1 (O94921 whole entry): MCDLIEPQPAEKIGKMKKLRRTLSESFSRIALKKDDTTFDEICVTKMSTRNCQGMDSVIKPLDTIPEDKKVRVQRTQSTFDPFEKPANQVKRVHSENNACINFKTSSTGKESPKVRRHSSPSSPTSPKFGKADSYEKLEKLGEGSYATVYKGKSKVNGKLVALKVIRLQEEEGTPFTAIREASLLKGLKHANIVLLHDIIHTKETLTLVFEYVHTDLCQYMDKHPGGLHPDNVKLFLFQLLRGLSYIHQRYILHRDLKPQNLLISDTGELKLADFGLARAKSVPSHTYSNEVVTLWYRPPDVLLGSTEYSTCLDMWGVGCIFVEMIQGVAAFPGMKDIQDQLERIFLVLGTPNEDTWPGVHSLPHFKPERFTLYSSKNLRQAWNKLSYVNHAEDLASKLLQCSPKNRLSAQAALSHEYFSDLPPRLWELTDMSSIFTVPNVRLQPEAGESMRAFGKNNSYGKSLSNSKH
Chain of PIK3CA(Q546K) (P42336 whole entry Q546K): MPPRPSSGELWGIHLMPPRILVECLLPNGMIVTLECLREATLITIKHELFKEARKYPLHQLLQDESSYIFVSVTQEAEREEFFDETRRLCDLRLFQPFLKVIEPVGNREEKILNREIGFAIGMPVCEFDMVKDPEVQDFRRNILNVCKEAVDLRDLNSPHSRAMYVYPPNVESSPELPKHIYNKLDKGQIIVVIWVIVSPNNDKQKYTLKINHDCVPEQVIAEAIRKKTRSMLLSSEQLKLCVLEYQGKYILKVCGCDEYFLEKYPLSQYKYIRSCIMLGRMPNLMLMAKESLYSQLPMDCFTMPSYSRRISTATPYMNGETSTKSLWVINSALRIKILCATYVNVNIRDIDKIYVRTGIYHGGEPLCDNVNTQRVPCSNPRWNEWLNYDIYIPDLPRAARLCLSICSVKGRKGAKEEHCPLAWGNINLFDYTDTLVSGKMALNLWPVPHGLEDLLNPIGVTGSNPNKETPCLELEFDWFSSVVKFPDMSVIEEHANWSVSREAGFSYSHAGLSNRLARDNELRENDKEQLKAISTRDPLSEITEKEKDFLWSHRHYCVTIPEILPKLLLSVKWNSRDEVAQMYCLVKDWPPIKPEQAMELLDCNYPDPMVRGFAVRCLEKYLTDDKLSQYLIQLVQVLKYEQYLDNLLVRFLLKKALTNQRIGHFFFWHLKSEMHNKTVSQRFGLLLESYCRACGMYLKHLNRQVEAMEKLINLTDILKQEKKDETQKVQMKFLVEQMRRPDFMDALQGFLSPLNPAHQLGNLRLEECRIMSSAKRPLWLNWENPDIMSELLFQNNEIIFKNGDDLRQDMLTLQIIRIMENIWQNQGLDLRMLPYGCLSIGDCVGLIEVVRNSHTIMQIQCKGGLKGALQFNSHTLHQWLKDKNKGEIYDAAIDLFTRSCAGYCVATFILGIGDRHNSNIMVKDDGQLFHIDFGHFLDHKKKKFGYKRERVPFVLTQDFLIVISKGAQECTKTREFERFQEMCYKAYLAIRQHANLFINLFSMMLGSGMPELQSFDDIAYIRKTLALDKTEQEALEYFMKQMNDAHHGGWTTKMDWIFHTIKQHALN
Chain of PIK3CA(I800L) (P42336 whole entry I800L): as the sequence (P42336 whole entry Q546K) above, with K546Q, I800L counted along it
Chain of GRK1 (Q15835 whole entry): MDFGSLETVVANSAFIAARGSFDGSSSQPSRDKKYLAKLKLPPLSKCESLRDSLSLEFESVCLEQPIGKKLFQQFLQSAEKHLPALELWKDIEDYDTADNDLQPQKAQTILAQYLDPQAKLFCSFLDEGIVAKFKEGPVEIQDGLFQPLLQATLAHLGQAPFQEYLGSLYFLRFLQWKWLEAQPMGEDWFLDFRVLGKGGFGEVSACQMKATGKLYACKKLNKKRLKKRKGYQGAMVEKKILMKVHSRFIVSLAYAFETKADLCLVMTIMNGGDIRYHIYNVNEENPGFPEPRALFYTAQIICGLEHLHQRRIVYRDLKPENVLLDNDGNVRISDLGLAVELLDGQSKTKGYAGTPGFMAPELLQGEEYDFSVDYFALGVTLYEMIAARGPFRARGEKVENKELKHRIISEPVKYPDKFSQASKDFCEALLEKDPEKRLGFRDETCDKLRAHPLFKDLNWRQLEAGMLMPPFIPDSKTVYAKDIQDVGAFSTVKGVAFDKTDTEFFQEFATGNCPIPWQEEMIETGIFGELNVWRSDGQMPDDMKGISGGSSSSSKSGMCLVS
Chain of LRRK2(G2019S) (Q5S007 whole entry G2019S): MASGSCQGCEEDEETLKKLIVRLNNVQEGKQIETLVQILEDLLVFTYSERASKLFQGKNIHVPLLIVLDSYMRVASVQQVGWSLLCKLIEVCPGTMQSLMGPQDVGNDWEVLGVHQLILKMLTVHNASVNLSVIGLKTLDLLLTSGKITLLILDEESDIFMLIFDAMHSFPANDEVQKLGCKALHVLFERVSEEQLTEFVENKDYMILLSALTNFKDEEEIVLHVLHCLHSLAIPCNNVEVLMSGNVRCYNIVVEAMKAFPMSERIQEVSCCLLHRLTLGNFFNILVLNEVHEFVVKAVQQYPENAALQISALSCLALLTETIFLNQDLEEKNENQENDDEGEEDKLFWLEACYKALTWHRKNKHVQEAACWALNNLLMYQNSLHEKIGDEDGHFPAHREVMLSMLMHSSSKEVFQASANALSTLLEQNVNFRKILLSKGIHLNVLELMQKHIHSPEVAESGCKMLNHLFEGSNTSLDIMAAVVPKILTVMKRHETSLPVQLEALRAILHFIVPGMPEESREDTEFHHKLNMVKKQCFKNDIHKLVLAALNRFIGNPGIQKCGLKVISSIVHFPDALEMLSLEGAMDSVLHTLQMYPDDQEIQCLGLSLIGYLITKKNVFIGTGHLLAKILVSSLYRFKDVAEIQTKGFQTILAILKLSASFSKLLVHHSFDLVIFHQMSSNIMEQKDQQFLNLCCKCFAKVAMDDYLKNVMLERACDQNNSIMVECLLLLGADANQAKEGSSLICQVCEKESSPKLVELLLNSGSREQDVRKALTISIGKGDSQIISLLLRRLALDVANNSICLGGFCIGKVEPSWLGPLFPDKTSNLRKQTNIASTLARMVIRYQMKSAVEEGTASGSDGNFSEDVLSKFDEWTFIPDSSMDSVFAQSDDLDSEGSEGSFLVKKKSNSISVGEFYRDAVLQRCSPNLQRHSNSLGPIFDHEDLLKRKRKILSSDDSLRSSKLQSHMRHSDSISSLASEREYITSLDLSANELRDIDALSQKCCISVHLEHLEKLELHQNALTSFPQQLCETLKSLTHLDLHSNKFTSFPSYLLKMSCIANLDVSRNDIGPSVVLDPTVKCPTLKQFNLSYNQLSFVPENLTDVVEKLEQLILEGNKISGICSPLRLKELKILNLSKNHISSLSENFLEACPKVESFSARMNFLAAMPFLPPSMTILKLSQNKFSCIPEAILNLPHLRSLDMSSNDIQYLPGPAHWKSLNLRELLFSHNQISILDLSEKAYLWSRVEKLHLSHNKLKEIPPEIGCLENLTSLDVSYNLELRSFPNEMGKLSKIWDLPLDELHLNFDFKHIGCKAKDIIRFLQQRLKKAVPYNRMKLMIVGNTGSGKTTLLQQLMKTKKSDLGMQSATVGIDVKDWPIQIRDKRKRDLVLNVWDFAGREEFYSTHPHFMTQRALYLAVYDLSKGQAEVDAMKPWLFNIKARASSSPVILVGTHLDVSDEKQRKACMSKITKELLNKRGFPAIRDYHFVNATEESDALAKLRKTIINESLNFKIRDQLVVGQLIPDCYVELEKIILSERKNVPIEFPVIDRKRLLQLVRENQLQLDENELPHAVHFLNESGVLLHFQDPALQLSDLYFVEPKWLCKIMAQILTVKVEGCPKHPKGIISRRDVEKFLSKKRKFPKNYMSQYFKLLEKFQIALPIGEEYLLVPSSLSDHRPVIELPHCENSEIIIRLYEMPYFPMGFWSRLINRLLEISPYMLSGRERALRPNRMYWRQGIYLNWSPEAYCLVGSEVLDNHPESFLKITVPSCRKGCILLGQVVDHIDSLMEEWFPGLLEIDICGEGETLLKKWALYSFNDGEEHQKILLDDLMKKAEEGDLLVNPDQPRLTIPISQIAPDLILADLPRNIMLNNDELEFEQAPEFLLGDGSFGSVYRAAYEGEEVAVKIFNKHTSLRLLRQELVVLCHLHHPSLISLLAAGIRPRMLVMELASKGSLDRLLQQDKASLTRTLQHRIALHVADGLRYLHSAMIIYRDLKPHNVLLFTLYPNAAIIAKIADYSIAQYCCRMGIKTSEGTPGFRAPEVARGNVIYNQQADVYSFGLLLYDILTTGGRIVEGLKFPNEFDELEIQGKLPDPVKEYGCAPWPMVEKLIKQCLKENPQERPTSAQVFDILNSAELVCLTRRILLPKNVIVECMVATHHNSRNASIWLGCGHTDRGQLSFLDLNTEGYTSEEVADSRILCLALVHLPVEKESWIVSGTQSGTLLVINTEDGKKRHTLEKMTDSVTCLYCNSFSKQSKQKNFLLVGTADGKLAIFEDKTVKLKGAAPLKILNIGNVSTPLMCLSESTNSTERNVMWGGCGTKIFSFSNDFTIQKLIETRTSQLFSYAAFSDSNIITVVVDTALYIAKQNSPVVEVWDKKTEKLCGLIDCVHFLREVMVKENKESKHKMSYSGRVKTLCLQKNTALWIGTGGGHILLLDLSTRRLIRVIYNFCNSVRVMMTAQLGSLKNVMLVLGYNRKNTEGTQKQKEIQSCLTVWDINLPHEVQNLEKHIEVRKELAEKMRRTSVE

Compound: CNc1ncc2cc(-c3ccc(-c4cccc(C)n4)cc3Cl)c(=O)n(C[C@H]3OC[C@H](N)CO3)c2n1 [compound 6, G-5555]
- Percent Control (VRK2): 94%
- Percent Control (MST2): 64%
- Percent Control (EPHA1): 64%
- Percent Control (FRK): 100%
- Percent Control (EGFR): 100%
- Percent Control (BRK): 100%
- Percent Control (PFTK1): 100%
- Percent Control (LRRK2(G2019S)): 100%
- Percent Control (EGFR(G719S)): 100%
- Percent Control (SGK): 99%
- Percent Control (GSK3A): 100%
- Percent Control (DSTYK): 90%
- Percent Control (PIK3CA(Q546K)): 85%
- Percent Control (TNIK): 100%
- Percent Control (GRK1): 100%
- Percent Control (ERBB4): 100%
- Percent Control (RET(V804L)): 94%
- Percent Control (BTK): 87%
- Percent Control (HIPK3): 86%
- Percent Control (FGFR3): 100%
- Percent Control (LATS2): 58%
- Percent Control (ACVRL1): 100%
- Percent Control (CSNK2A1): 88%
- Percent Control (MRCKB): 73%
- Percent Control (p38-gamma): 100%
- Percent Control (WNK4): 96%
- Percent Control (PIK3CA(I800L)): 87%
- Percent Control (JNK3): 92%
- Percent Control (MLK1): 100%
- Percent Control (FLT3(D835Y)): 94%
- Percent Control (PDGFRA): 100%
